System: HBV DNA in mouse serum (rAAV8-1.3HBV, type D, ayw)
Assay: AAV/HBV mouse model: qPCR quantification of HBV DNA in mouse serum
Assay type: in vivo, C57BL/6 mice
Settings: for HBV DNA (log10, copy/μL) time (days) post-dose: 3: day 3; for HBV DNA (log10, copy/μL) time (days) post-dose: 3 / HBV DNA (log10, copy/μL) time (days) post-dose: 7 / HBV DNA (log10, copy/μL) time (days) post-dose: 14 / HBV DNA (log10, copy/μL) time (days) post-dose: 21 / HBV DNA (log10, copy/μL) time (days) post-dose: 28: i.g. days 0-27; for HBV DNA (log10, copy/μL) time (days) post-dose: 7: day 7; for HBV DNA (log10, copy/μL) time (days) post-dose: 14: day 14; for HBV DNA (log10, copy/μL) time (days) post-dose: 21: day 21; for HBV DNA (log10, copy/μL) time (days) post-dose: −1: day −1 (before first dose)
Method: Male C57BL/6 mice, 5 weeks old, free of specific pathogens, purchased from Shanghai Slac Laboratory Animal Co., Ltd., housed in independent ventilated cages. The mice were acclimatized for 3 days and then injected with the AAV/HBV virus.
rAAV8-1.3HBV (type D, ayw) was purchased from FivePlus, Beijing. It was diluted with sterile PBS to 5×10^11 v.g./mL before experiment. Each mouse was injected with 200 μL, i.e., 1×10^11 v.g.
AAV/HBV injection: rAAV8-1.3HBV was prepared into a 1×10^11 v.g./200 μL solution with sterile PBS in advance before injection. Mice were injected with 200 μL of the rAAV8-1.3HBV solution via the tail vein.
Grouping: On day 27 post virus injection, according to the serum HBV DNA, HBeAg and HBsAg results on days 14 and 21, the mice were randomized into groups of 8 or 4 and correspondingly treated according to the experimental design.
Group number: • i. Solvent group; • ii. Monotherapy group: entecavir; • iii. Monotherapy group: the compound of formula I 3 mpk; • iv. Combination group (combo): the compound of formula I 3 mpk and entecavir; • v. Monotherapy group: the compound of formula I 10 mpk; • vi. Combination group (combo): the compound of formula I 10 mpk and entecavir.
Compound treatment: On day 28 post infection, all mice were intragastrically administered a solvent or compound. The day of the first administration was counted as day 0 of experiment, and the duration of administration was from day 0 to day 27. Entecavir was administered once daily (QD) and the compound of formula I was administered twice daily (BID, 8 hr/16 hr apart). The administration volume was 10 mL/kg.
Non-endpoint blood collection: On day −1, 3, 7, 14, 21, 28, 35 or 42, about 120 μL of blood was collected from the submandibular vein, and serum was collected and assayed for HBV DNA. If blood collection and administration were on the same day, blood collection was performed about 5 hours after the first administration on that day.
Endpoints of experiment: mice in groups i-iv were euthanized on day 28. Blood was collected from the hearts of the mice, and serum was collected and assayed for HBV DNA. The endpoints of experiment for groups v and vi were on day 42.
qPCR Quantification of HBV DNA in mouse serum: The DNA was extracted from serum, and the experiment was performed by following the instructions for QIAamp 96 DNA Blood Kit. qPCR conditions: 95 ° C., 10 min, 1 cycle; 95° C., 15 s; 60° C., 1 min; 40 cycles.
Data were expressed as mean ±standard error, and statistical analysis was performed using Student t test.

[1] = entecavir 0.001 mg/kg QD, compound of formula I 3 mg/kg BID, mean ± standard error, LLOQ 2.08
[2] = compound of formula I 10 mg/kg BID, entecavir 0.001 mg/kg QD, values below LLOQ expressed as 2.08
[3] = day 28 (endpoint), entecavir 0.001 mg/kg QD, compound of formula I 3 mg/kg BID, mean ± standard error, LLOQ 2.08
[4] = Table 4 groups: entecavir 0.001 mg/kg QD, compound of formula I 3 mg/kg BID, i.g., mean ± standard error

SMILES	HBV DNA (log10, copy/μL) time (days) post-dose: 3 [1]	HBV DNA (log10, copy/μL) time (days) post-dose: 7 [1]	HBV DNA (log10, copy/μL) time (days) post-dose: 14 [2]	HBV DNA (log10, copy/μL) time (days) post-dose: 14 [1]	HBV DNA (log10, copy/μL) time (days) post-dose: 21 [2]	HBV DNA (log10, copy/μL) time (days) post-dose: 21 [1]	HBV DNA (log10, copy/μL) time (days) post-dose: 28 [3]	HBV DNA (log10, copy/μL) time (days) post-dose: 28 (day 28, compound of formula I 10 mg/kg BID, entecavir 0.001 mg/kg QD, values below LLOQ expressed as 2.08)	HBV DNA (log10, copy/μL) time (days) post-dose: 31 (day 31 (after end of dosing on day 27), compound of formula I 10 mg/kg BID, entecavir 0.001 mg/kg QD, i.g., LLOQ 2.08)	HBV DNA (log10, copy/μL) time (days) post-dose: 35 (day 35 (after end of dosing on day 27), compound of formula I 10 mg/kg BID, entecavir 0.001 mg/kg QD, i.g., LLOQ 2.08)	HBV DNA (log10, copy/μL) time (days) post-dose: 42 (day 42 (endpoint, after end of dosing on day 27), compound of formula I 10 mg/kg BID, entecavir 0.001 mg/kg QD, i.g., LLOQ 2.08)	HBV DNA (log10, copy/μL) time (days) post-dose: −1 [4]	HBV DNA (log10, copy/μL) time (days) post-dose: −1 (Table 5 groups: compound of formula I 10 mg/kg BID, entecavir 0.001 mg/kg QD, i.g., mean ± standard error)
C[C@]1(NC(=O)C(=O)c2c(Cl)c(C(=O)Nc3cc(F)c(F)c(F)c3)c3n2CCC3)CC[C@H](CC(=O)O)CC1 [Compound of formula I, 2-((1r,4r)-4-(2-(6-chloro-7((3,4,5-trifluorophenyl)carbamoyl)-2,3-dihydro-1H-pyrrolin-5-yl)-2-oxalylamino)-4-methylcyclohexyl)acetic acid]	3.71 ± 0.10 log10, copy/μL	3.63 ± 0.09 log10, copy/μL	2.10 ± 0.02 log10, copy/μL	3.71 ± 0.06 log10, copy/μL	2.08 ± 0.00 log10, copy/μL	3.61 ± 0.11 log10, copy/μL	3.96 ± 0.11 log10, copy/μL	2.12 ± 0.04 log10, copy/μL	3.56 ± 0.12 log10, copy/μL	4.38 ± 0.09 log10, copy/μL	4.64 ± 0.08 log10, copy/μL	4.46 ± 0.07 log10, copy/μL	4.45 ± 0.07 log10, copy/μL
C=C1[C@H](CO)[C@@H](O)C[C@@H]1n1cnc2c(=O)[nH]c(N)nc21 [Entecavir, 2-amino-9-[(1S,3R,4S)-4-hydroxy-3-hydroxymethyl-2-methylenecyclopentyl]-1,9-dihydro-6H-purin-6-one, reference compound]	3.11 ± 0.10 log10, copy/μL	2.69 ± 0.11 log10, copy/μL		2.75 ± 0.13 log10, copy/μL		2.79 ± 0.12 log10, copy/μL	2.70 ± 0.17 log10, copy/μL					4.19 ± 0.12 log10, copy/μL	
